Reference: patent US7662852B2, “Compounds and preparations having antiviral effect” (Lead Chemical Co., Ltd., priority 2003, dated 2010)

Assays:
[1] = test system: MT-4 cell; settings: non-infected MT-4 cell, 5 days, MTT
Procedure: (§1) For this experiment, human T-cell leukemia virus I (HTLV-I) infected T cell strain, MT-4 cell and T cell leukemia cell strain, MOLT-4 (clone No. 8) cell, HIV-1 continuous infection cell, MOLT-4/IIIB cell were used. The cell was cultured in RPMI-1640 medium (SIGMA) supplemented with 10% inactivated fetal calf plasma (FCS) (MOREGATE, Australia), 100 μg/ml streptomycin and 100 U/ml penicillin G (SIGMA) under a condition of 5% CO2 and 37° C. Subculture was performed every three days by controlling the density to 30×10^4 cells/ml.
(§2) The anti-HIV activity of each sample to be tested was evaluated by measuring inhibition activity against cytopathogenicity induced by HIV-1 according to MTTassay. The assay was performed in a triplicate mode, and anti-HIV activity and cytotoxicity were measured simultaneously.
(§3) 96-well plate was used, 10% FCS/RPMI-1640 medium was added in inner 60 wells in an amount of 100 μl/well, and in outer 36 wells in an amount of 200 μl/well in order to prevent evaporation.
(§4) The samples to be tested that were adjusted with RPMI-1640 medium were added in an amount of 25 μl/well in the first lane of the inner 60 wells, and 5-fold stepwise dilution series were prepared by manipulating pipette. In addition, in the last lane, no sample to be tested was added and regarded as control. MT-4 cell suspended in 30×10^4 cells/ml was prepared in two flasks, and the cells in one flask were infected with HIV-1 IIIB in a multiplicity of infection (MOI) of 0.01. The infected or non-infected MT-4 cells were immediately added to samples to be tested in an amount of 100 μl/ml, and cultured under a condition of 5% CO2 and 37° C.
5 days later, the viability of cells was measured based on MTT method by use of Titertek Multiskan. MTT adjusted to 7.5 mg/ml with PBS (Ca++, Mg++*free phosphate-buffered saline) was added in an amount of 20 μl/well, and cultured under a condition of 5% CO2 and 37° C., 150 μl of the cultured supernatant was removed and then 100 μl of cytolysis solution (5% (v/v)TritonX-100/acid isopropanol) was added and stirred on a plate mixer for 30 minutes.
The absorbance (reference wavelength: 690 nm) was determined with a plate reader at 540 nm. […] Further, ratio of CC50 to EC50, that is, selective index (SI=CC50/EC50) was calculated.

[2] = test system: HIV-1 IIIB; settings: for Anti-HIV Activity EC50: MT-4 cell infected with T-cell tropic strain HIV-1 IIIB, MOI 0.01, 5 days, MTT; for Safety Index S.I. CC50/EC50 / anti-HIV activity in vitro (in words): MT-4 cell, HIV-1 IIIB
Procedure: as §1
HIV-1 IIIB was prepared from the supernatant of MOLT-4/IIIB cell.
MOLT-4/IIIB cell was controlled to a density of 30×10^4 cells/ml and then the culture was started. The cultured liquid was collected three days later, and centrifuged at 3000 rpm for 10 minutes at 4° C. […] These supernatants were passed through 0.45 μm filter. The virus stocks were frozen and stored at −80° C. The amount of virus was adjusted depending on an amount of p24.
• 1) in vitro activity: A phorbol derivative was dissolved in an amount of 1.0 mg in 1.0 ml of DMSO to obtain a concentrated solution.
as §2, §3, §4
5 days later, the viability of cells was measured based on MTT method by use of Titertek Multiskan.

[3] = mouse plasma 37° C. 30 min / living organism
Procedure: (§5) • 1) in vitro activity: A phorbol derivative was dissolved in an amount of 1.0 mg in 1.0 ml of DMSO to obtain a concentrated solution. A sample to be tested was prepared by diluting the concentrated solution with a saline or a phosphate buffer to a predetermined concentration. • 2) stability in blood: 1 ml of blood from the abdominal aorta of 6- to 7-week-old BALB/c male mouse was withdrawn in an injector in which 0.1 ml of 3.8% sodium citrate was contained, and centrifuged at 5000 rpm for 10 minutes to obtain a plasma. The plasma was added in a solution to be tested in a proportion of 9:1 to prepare a diluted solution to be tested in a predetermined concentration of 10-fold dilution. The diluted solution was incubated at 37° C. for 30 minutes to prepare a sample to be tested. • 3) in situ activity: the above-mentioned sample to be tested 1) was orally administered to 6- to 7-week-old BALB/c male mouse in a dose of 1 mg/kg, at 20, 40 and 60 minutes after the administration, blood was withdrawn from the abdominal aorta under light anesthetization similarly to those of the 2) above, and the plasma from the blood was used as a sample to be tested.

[4] = 30 min
Procedure: as §5

[5] = test system: HIV-1 JRCSF; settings: NPB-11 1 ng/ml, PBMC infected with HIV-1 JRCSF, 7 days
Procedure: JRCSF was obtained by culturing 293T cell transfected with 15 μg of virus DNA and collecting the cultured liquid two days later. These supernatants were passed through 0.45 μm filter. The virus stocks were frozen and stored at −80° C. The amount of virus was adjusted depending on an amount of p24.
The infection to peripheral blood mononuclear cells (PBMC) of JRCSF and the evaluation of the anti-HIV activity were performed as follows. 1×10^6 cells/ml of PBMC was inoculated with JRCSF having 20 ng of p24, and the cells were washed 2 hours later. Thereafter, the cells were cultured in a culture liquid containing an agent to be tested for 7 days, and the antiviral activity was detected by measuring p24.
The anti-HIV effect was evaluated by determining the amount of p24 that is one of viral gap proteins and calculating its reduced amount.

For `CCCCCCCCCC(=O)OC12C(OC(=O)CCC)C(C)C3(O)C(C=C(CO)CC4(O)C(=O)C(C)=CC43)C1C2(C)C` (centres unmarked) [NPB-9], the “Cytotoxicity CC50” value [1] was 125 µg/mL, the “Anti-HIV Activity EC50” value [2] was greater than 1000 ng ng/ml and the “Safety Index S.I. CC50/EC50” value [2] was 125<. The “anti-HIV activity in vitro (in words)” value [2] was “lowered in the activity”.
For `CCCCCCCCCC(=O)OC12C(OC)C(C)C3(O)C(C=C(CO)CC4(O)C(=O)C(C)=CC43)C1C2(C)C` (centres unmarked) [NPB-13], the “Cytotoxicity CC50” value [1] was 4.6173 µg/mL, the “Biological Stability” value [3] was “Stable” and the “Anti-HIV Activity EC50” value [2] was 118.9 ng/mL. For the same compound, the “Safety Index S.I. CC50/EC50” value [2] was 39 and the “anti-HIV activity in vitro (in words)” value [2] was “weak activity”.
For `CCCCCCCCCC(=O)OC12C(OC(=O)CC)C(C)C3(O)C(C=C(CO)CC4(O)C(=O)C(C)=CC43)C1C2(C)C` (centres unmarked) [NPB-5], the “Cytotoxicity CC50” value [1] was 125 µg/mL, the “Anti-HIV Activity EC50” value [2] was greater than 1000 ng ng/ml and the “Safety Index S.I. CC50/EC50” value [2] was 125<. The “anti-HIV activity in vitro (in words)” value [2] was “lowered in the activity”.
For `CCCCCCCCCC(=O)OC12C(OCC)C(C)C3(O)C(C=C(CO)CC4(O)C(=O)C(C)=CC43)C1C2(C)C` (centres unmarked) [NPB-14], the “Cytotoxicity CC50” value [1] was 3.3240 µg/mL, the “Biological Stability” value [3] was “Stable” and the “Heat Stability 56° C., 30′” value [4] was “unstable to heat compared with NPB-11”. For the same compound, the “Anti-HIV Activity EC50” value [2] was 195.7 ng/mL, the “Safety Index S.I. CC50/EC50” value [2] was 17 and the “anti-HIV activity in vitro (in words)” value [2] was “weak activity”.
In the case of `CCCCCCCCCC(=O)OC12C(OCOC)C(C)C3(O)C(C=C(CO)CC4(O)C(=O)C(C)=CC43)C1C2(C)C` (centres unmarked) [NPB-11], the “Cytotoxicity CC50” value [1] is reported as 6.9123 µg/mL, the “amount of viral protein p24 (antiviral effect)” value [5] is reported as “little viral protein was detected” and the “Anti-HIV Activity EC50” value [2] is reported as 1.7 ng/mL. The “Safety Index S.I. CC50/EC50” value [2] was 4066 and the “anti-HIV activity in vitro (in words)” value [2] was “strong activity”.
With `CCCCCCCCCC(=O)OC12C(OC(C)=O)C(C)C3(O)C(C=C(CO)CC4(O)C(=O)C(C)=CC43)C1C2(C)C` (centres unmarked) [Sample N-6, reference compound] the “Cytotoxicity CC50” value [1] was 3.2638 µg/mL, the “Heat Stability 56° C., 30′” value [4] was “Stable” and the “Anti-HIV Activity EC50” value [2] was 1.7 ng/mL. For the same compound, the “Safety Index S.I. CC50/EC50” value [2] was 1920 and the “anti-HIV activity in vitro (in words)” value [2] was “extremely strong anti-HIV activity”.
